Data from patent publication US5296485A, “Substituted N-phenylpiperidines and drugs therefrom” (BASF Aktiengesellschaft, priority 1991, dated 1994).
pKi: −log10 of the molar value. Where two headings read alike, the source gives them in different places.

What was measured:
sigma binding sites = conditions: J. Pharmacol. Exp. Ther. 238 (1986) 739; cited from earlier work
guinea-pig hearts = assay: ECG measurement of QT prolongation on isolated perfused (Langendorff) guinea-pig hearts; design: species or system guinea-pig (male Duncin-Hartley); conditions: Cavia porcellus, 0.25 h; isolated guinea-pig heart, Krebs-Henseleit perfusate, 37° C., cumulative addition at 15 min intervals; linear regression on log dose; read-out: ED20% (dose at which the QT interval is increased by 20% from the initial level)
Excerpt: In this connection, the cardiac cycle is divided into systole (contraction of the heart), also called QT interval, and diastole (relaxation of the heart with filling of the ventricles with blood). Repolarization inhibitors increase the QT interval but have a negligible effect on the atrioventricular conduction time (PQ interval) and the period of isometric contraction (QRS time, from start of systole to opening of the semilunar valves) (see Pschyrembel, 254th Edition, 1982).
The activity of the compounds according to the invention as repolarization inhibitors can be investigated in animal experiments by ECG measurements on, for example, guinea-pig hearts (see Basic Res. Cardiol. 82 (1987) 437; J. Pharmacol. Methods 21 (1989) 195). Comparison of the activities of various substances is based, for example, on the dose of an active substance at which the QT interval is increased by 20% from the initial level (ED20%). To do this, the logarithms of the doses of the substances are plotted against the experimentally found relative changes in the QT interval, and linear regression is used to determine the equation of a straight line from which the ED20% can then be calculated.
This method was used to determine the ED20% values of compounds according to the invention (see Table 1) . The comparison substance was D-sotalol [4'-(1-hydroxy-2-(isopropylamino)ethyl)methanesulfonanilide].
The experimental animals were male Duncin-Hartley guinea-pigs weighing from 300 to 350 g. 30 min after administration of 1250 I.U. of heparin/kg of body weight into the abdominal cavity, the animals were sacrificed by a blow to the back of the neck. The common carotid arteries were severed for exsanguination, then the thoracic cavity was opened and the heart was removed and connected to a perfusion apparatus. The Langendorff perfusion was carried out with oxygen-enriched Krebs-Henseleit solution (NaCl 6896 mg/l; KCl 350 mg/l; MgSO4 285 mg/l; CaCl2 370 mg/l; KH2 PO4 161 mg/l; NaHCO3 2090 mg/l; glucose 2000 mg/1) at 37° C. The perfusion volume per unit time was 4 to 6 ml/min, the total volume was 100 ml and the perfusion pressure was 60 to 70 mm Hg. Circulating perfusion was carried out after an equilibration time of 30 min.
Two silver electrodes attached to the surface of the heart in the upper region of the left coronary artery and on the rear of the heart at the level of the valve were used for the ECG recordings. The PQ and QT intervals and QRS times, and the heart rate, were measured.
The substances were added to the perfusate cumulatively at 15 min intervals.

sigma receptor [1] = assay: Sigma receptor binding ([^3 H]-ditolylguanidine); conditions: rat cerebra membranes, pH 7.7, 37° C., read-out: Activity constants Ki for the [^3 H]-ditolylguanidine binding site
humans = conditions: substances which bind to sigma receptors; J. Pharmacol. Exp. Ther. 197 (1976) 517; cited from earlier work
sigma receptor [2] = conditions: cited from earlier work

SMILES: OC(CCCN1CCN(c2ncc(F)cn2)CC1)c1ccc(F)cc1 (stereo not drawn) [BMY 14802, α-(4-fluorophenyl)-4-(5-fluoro-2-pyrimidinyl)-1-piperazinebutanol]
- affinity for sigma binding sites (sigma binding sites): high affinity

SMILES: CC(C)NC[C@@H](O)c1ccc(NS(C)(=O)=O)cc1 [D-sotalol, 4'-(1-hydroxy-2-(isopropylamino)ethyl)methanesulfonanilide]
- EC20 (guinea-pig hearts): 16 µM

SMILES: CN(Cc1ccccc1)CC1CCN(c2ccc([N+](=O)[O-])cc2)CC1 [Example 2, 4-(N-Benzyl-N-methylaminomethyl)-1-(4-nitrophenyl)piperidine]
- EC20 (guinea-pig hearts): 0.42 µM
- pKi (sigma receptor [1]): 7.96

SMILES: N#Cc1ccc(N2CCC(N3CCN(c4ccc([N+](=O)[O-])cc4)CC3)CC2)cc1 [Example 3, N-[1-(4-Cyanophenyl)-4-piperidinyl)-N'-(4-nitrophenyl)piperazine]
- EC20 (guinea-pig hearts): 0.031 µM

SMILES: O=[N+]([O-])c1ccc(N2CCC(N3CCC(c4ccccc4)CC3)CC2)cc1 [Example 8, 1-(4-Nitrophenyl)-4-(4-phenyl-1-piperidinyl)piperidine]
- pKi (sigma receptor [1]): 8.55

SMILES: CN(Cc1ccc(NS(C)(=O)=O)cc1)CC1CCN(c2ccc(NS(C)(=O)=O)cc2)CC1 [Example 10, 1-(4-Methanesulfonamidophenyl)-4-[N-(4-methanesulfonamidobenzyl)-N-methylaminomethyl]piperidine]
- EC20 (guinea-pig hearts): 0.96 µM

SMILES: CN(Cc1ccccc1)C1CCCN(c2ccc([N+](=O)[O-])cc2)C1 (stereo not shown) [Example 11, 3-(N-benzyl-N-methylamino)-1-(4-nitrophenyl)piperidine]
- EC20 (guinea-pig hearts): 1.1 µM
- pKi (sigma receptor [1]): 8.70

SMILES: CN(CC(O)c1ccc(F)cc1)C1CCN(c2ccc([N+](=O)[O-])cc2)CC1 (stereo not shown) [Example 12, 4-[N-[2-(4-Fluorophenyl)-2-hydroxyethyl]-N-methylamino]-1-(4-nitrophenyl)piperidine]
- EC20 (guinea-pig hearts): 0.21 µM

SMILES: C[C@H]1[C@H]2Cc3ccc(O)cc3[C@]1(C)CCN2CC1CC1 [cyclazocine]
- psychotomimetic effects in humans (humans): psychotomimetic effects

SMILES: O=C(CCCN1CCC(O)(c2ccc(Cl)cc2)CC1)c1ccc(F)cc1 [haloperidol]
- affinity of the haloperidol-sensitive sigma receptors (sigma receptor [2]): high affinity
- affinity for sigma binding sites (sigma binding sites): high affinity

SMILES: CNC1(c2ccccc2Cl)CCCCC1=O (stereo not shown) [ketamine]
- psychotomimetic effects in humans (humans): psychotomimetic effects

SMILES: CC(C)=CCN1CCC2(C)c3cc(O)ccc3CC1C2C (stereo not shown) [pentazocine]
- psychotomimetic effects in humans (humans): psychotomimetic effects

SMILES: c1ccc(C2(N3CCCCC3)CCCCC2)cc1 [phencyclidine]
- affinity of the haloperidol-sensitive sigma receptors (sigma receptor [2]; statement in words on the receptor used in the assay): low affinity
